In PMC4767141, “Discovery of Potent, Orally Bioavailable, Small-Molecule Inhibitors of WNT Signaling from a Cell-Based Pathway Screen” (Journal of Medicinal Chemistry, 2015):

How the values were obtained:
A1 (h) = target: T1, A1 (h) (Homo sapiens, UniProt P30542); experiment: CEREP binding panel; details: antagonist radioligand, read-out: % Inhibition of Control Specific Binding
T1 construct: purchased Millipore KinaseProfiler (kinases); Cerep (receptors and ion channels)

β1 (h) = target: T2, β1 (h) (Homo sapiens, UniProt P08588); experiment: CEREP binding panel; details: agonist radioligand, read-out: % Inhibition of Control Specific Binding
T2 construct: purchased Millipore KinaseProfiler (kinases); Cerep (receptors and ion channels)

β2 (h) = target: T3, β2 (h) (Homo sapiens, UniProt P07550); experiment: CEREP binding panel; details: agonist radioligand, read-out: % Inhibition of Control Specific Binding
T3 construct: purchased Millipore KinaseProfiler (kinases); Cerep (receptors and ion channels)

GABA (non-selective) = experiment: CEREP binding panel; details: 10 μM, agonist radioligand
CCR1 (h) = target: T4, CCR1 (h) (Homo sapiens, UniProt P32246); experiment: CEREP binding panel; details: agonist radioligand, read-out: % Inhibition of Control Specific Binding
T4 construct: purchased Millipore KinaseProfiler (kinases); Cerep (receptors and ion channels)

MC4 (h) = target: T5, MC4 (h) (Homo sapiens, UniProt P32245); experiment: CEREP binding panel; details: agonist radioligand, read-out: % Inhibition of Control Specific Binding
T5 construct: purchased Millipore KinaseProfiler (kinases); Cerep (receptors and ion channels)

NK2 (h) = target: T6, NK2 (h) (Homo sapiens, UniProt P21452); experiment: CEREP binding panel; details: agonist radioligand, read-out: % Inhibition of Control Specific Binding
T6 construct: purchased Millipore KinaseProfiler (kinases); Cerep (receptors and ion channels)

κ (KOP) = target: T7, κ (KOP) (Rattus norvegicus, UniProt P34975); experiment: CEREP binding panel; details: agonist radioligand, read-out: % Inhibition of Control Specific Binding
T7 construct: purchased Millipore KinaseProfiler (kinases); Cerep (receptors and ion channels)

μ (MOP) (h) = target: T8, μ (MOP) (h) (Homo sapiens, UniProt P35372); experiment: CEREP binding panel; details: agonist radioligand, read-out: % Inhibition of Control Specific Binding
T8 construct: purchased Millipore KinaseProfiler (kinases); Cerep (receptors and ion channels)

5-HT2A (h) = target: T9, 5-HT2A (h) (Homo sapiens, UniProt P28223); experiment: CEREP binding panel; details: antagonist radioligand, read-out: % Inhibition of Control Specific Binding
T9 construct: purchased Millipore KinaseProfiler (kinases); Cerep (receptors and ion channels)

sst (non-selective) = experiment: CEREP binding panel; details: 10 μM, agonist radioligand
CAMKI = target: T10, CAMKI (Homo sapiens, UniProt Q14012); experiment: Millipore kinase panel; type: biochemical; details: read-out: % Control
T10 construct: purchased Millipore KinaseProfiler (kinases); Cerep (receptors and ion channels)

CDK3/CYCLINE = target: T11, CDK3/CYCLINE (Homo sapiens, UniProt Q00526); experiment: Millipore kinase panel; type: biochemical; details: read-out: % Control
T11 construct: purchased Millipore KinaseProfiler (kinases); Cerep (receptors and ion channels)

CDK5/P25 = target: T12, CDK5/P25 (Homo sapiens, UniProt Q00535); experiment: Millipore kinase panel; type: biochemical; details: read-out: % Control
T12 construct: purchased Millipore KinaseProfiler (kinases); Cerep (receptors and ion channels)

CDK9/CYCLINT1 = target: T13, CDK9/CYCLINT1 (Homo sapiens, UniProt P50750); experiment: Millipore kinase panel; type: biochemical; details: read-out: % Control
T13 construct: purchased Millipore KinaseProfiler (kinases); Cerep (receptors and ion channels)

CK2 = target: T14, CK2 (Homo sapiens, UniProt P68400); experiment: Millipore kinase panel; type: biochemical; details: read-out: % Control
T14 construct: purchased Millipore KinaseProfiler (kinases); Cerep (receptors and ion channels)

CSK = target: T15, CSK (Homo sapiens, UniProt P41240); experiment: Millipore kinase panel; type: biochemical; details: read-out: % Control
T15 construct: purchased Millipore KinaseProfiler (kinases); Cerep (receptors and ion channels)

DAPK2 = target: T16, DAPK2 (Homo sapiens, UniProt Q9UIK4); experiment: Millipore kinase panel; type: biochemical; details: read-out: % Control
T16 construct: purchased Millipore KinaseProfiler (kinases); Cerep (receptors and ion channels)

EPHA5 = target: T17, EPHA5 (Homo sapiens, UniProt P54756); experiment: Millipore kinase panel; type: biochemical; details: read-out: % Control
T17 construct: purchased Millipore KinaseProfiler (kinases); Cerep (receptors and ion channels)

FGFR1 = target: T18, FGFR1 (Homo sapiens, UniProt P11362); experiment: Millipore kinase panel; type: biochemical; details: read-out: % Control
T18 construct: purchased Millipore KinaseProfiler (kinases); Cerep (receptors and ion channels)

FGFR4 = target: T19, FGFR4 (Homo sapiens, UniProt P22455); experiment: Millipore kinase panel; type: biochemical; details: read-out: % Control
T19 construct: purchased Millipore KinaseProfiler (kinases); Cerep (receptors and ion channels)

FLT1 = target: T20, FLT1 (Homo sapiens, UniProt P17948); experiment: Millipore kinase panel; type: biochemical; details: read-out: % Control
T20 construct: purchased Millipore KinaseProfiler (kinases); Cerep (receptors and ion channels)

FYN = target: T21, FYN (Homo sapiens, UniProt P06241); experiment: Millipore kinase panel; type: biochemical; details: read-out: % Control
T21 construct: purchased Millipore KinaseProfiler (kinases); Cerep (receptors and ion channels)

IRAK1 = target: T22, IRAK1 (Homo sapiens, UniProt P51617); experiment: Millipore kinase panel; type: biochemical; details: read-out: % Control
T22 construct: purchased Millipore KinaseProfiler (kinases); Cerep (receptors and ion channels)

CKIT = target: T23, CKIT (Homo sapiens, UniProt P10721); experiment: Millipore kinase panel; type: biochemical; details: read-out: % Control
T23 construct: purchased Millipore KinaseProfiler (kinases); Cerep (receptors and ion channels)

LOK = target: T24, LOK (Homo sapiens, UniProt O94804); experiment: Millipore kinase panel; type: biochemical; details: read-out: % Control
T24 construct: purchased Millipore KinaseProfiler (kinases); Cerep (receptors and ion channels)

MINK = target: T25, MINK (Homo sapiens, UniProt Q8N4C8); experiment: Millipore kinase panel; type: biochemical; details: read-out: % Control
T25 construct: purchased Millipore KinaseProfiler (kinases); Cerep (receptors and ion channels)

MKK7BETA = target: T26, MKK7BETA (Homo sapiens, UniProt O14733); experiment: Millipore kinase panel; type: biochemical; details: read-out: % Control
T26 construct: purchased Millipore KinaseProfiler (kinases); Cerep (receptors and ion channels)

MLK1 = target: T27, MLK1 (Homo sapiens, UniProt P80192); experiment: Millipore kinase panel; type: biochemical; details: read-out: % Control
T27 construct: purchased Millipore KinaseProfiler (kinases); Cerep (receptors and ion channels)

PAK5 = target: T28, PAK5 (Homo sapiens, UniProt Q9P286); experiment: Millipore kinase panel; type: biochemical; details: read-out: % Control
T28 construct: purchased Millipore KinaseProfiler (kinases); Cerep (receptors and ion channels)

PDGFRALPHA = target: T29, PDGFRALPHA (Homo sapiens, UniProt P16234); experiment: Millipore kinase panel; type: biochemical; details: read-out: % Control
T29 construct: purchased Millipore KinaseProfiler (kinases); Cerep (receptors and ion channels)

PKCZETA = target: T30, PKCZETA (Homo sapiens, UniProt Q05513); experiment: Millipore kinase panel; type: biochemical; details: read-out: % Control
T30 construct: purchased Millipore KinaseProfiler (kinases); Cerep (receptors and ion channels)

PRKX = target: T31, PRKX (Homo sapiens, UniProt P51817); experiment: Millipore kinase panel; type: biochemical; details: read-out: % Control
T31 construct: purchased Millipore KinaseProfiler (kinases); Cerep (receptors and ion channels)

RSK3 = target: T32, RSK3 (Homo sapiens, UniProt Q15349); experiment: Millipore kinase panel; type: biochemical; details: read-out: % Control
T32 construct: purchased Millipore KinaseProfiler (kinases); Cerep (receptors and ion channels)

SAPK3 = target: T33, SAPK3 (Homo sapiens, UniProt P53778); experiment: Millipore kinase panel; type: biochemical; details: read-out: % Control
T33 construct: purchased Millipore KinaseProfiler (kinases); Cerep (receptors and ion channels)

SGK2 = target: T34, SGK2 (Homo sapiens, UniProt Q9HBY8); experiment: Millipore kinase panel; type: biochemical; details: read-out: % Control
T34 construct: purchased Millipore KinaseProfiler (kinases); Cerep (receptors and ion channels)

SGK3 = target: T35, SGK3 (Homo sapiens, UniProt Q96BR1); experiment: Millipore kinase panel; type: biochemical; details: read-out: % Control
T35 construct: purchased Millipore KinaseProfiler (kinases); Cerep (receptors and ion channels)

SRC = target: T36, SRC (Homo sapiens, UniProt P12931); experiment: Millipore kinase panel; type: biochemical; details: read-out: % Control
T36 construct: purchased Millipore KinaseProfiler (kinases); Cerep (receptors and ion channels)

TAK1 = target: T37, TAK1 (Homo sapiens, UniProt O43318); experiment: Millipore kinase panel; type: biochemical; details: read-out: % Control
T37 construct: purchased Millipore KinaseProfiler (kinases); Cerep (receptors and ion channels)

TSSK1 = target: T38, TSSK1 (Homo sapiens, UniProt Q9BXA7); experiment: Millipore kinase panel; type: biochemical; details: read-out: % Control
T38 construct: purchased Millipore KinaseProfiler (kinases); Cerep (receptors and ion channels)

ZAP-70 = target: T39, ZAP-70 (Homo sapiens, UniProt P43403); experiment: Millipore kinase panel; type: biochemical; details: read-out: % Control
T39 construct: purchased Millipore KinaseProfiler (kinases); Cerep (receptors and ion channels)

CK1GAMMA1 = target: T40, CK1GAMMA1 (Homo sapiens, UniProt Q9HCP0); experiment: Millipore kinase panel; type: biochemical; details: read-out: % Control
T40 construct: purchased Millipore KinaseProfiler (kinases); Cerep (receptors and ion channels)

ULK3 = target: T41, ULK3 (Homo sapiens, UniProt Q6PHR2); experiment: Millipore kinase panel; type: biochemical; details: read-out: % Control
T41 construct: purchased Millipore KinaseProfiler (kinases); Cerep (receptors and ion channels)

PLK1 = target: T42, PLK1 (Homo sapiens, UniProt P53350); experiment: Millipore kinase panel; type: biochemical; details: read-out: % Control
T42 construct: purchased Millipore KinaseProfiler (kinases); Cerep (receptors and ion channels)

T15 sequence (P41240 whole entry): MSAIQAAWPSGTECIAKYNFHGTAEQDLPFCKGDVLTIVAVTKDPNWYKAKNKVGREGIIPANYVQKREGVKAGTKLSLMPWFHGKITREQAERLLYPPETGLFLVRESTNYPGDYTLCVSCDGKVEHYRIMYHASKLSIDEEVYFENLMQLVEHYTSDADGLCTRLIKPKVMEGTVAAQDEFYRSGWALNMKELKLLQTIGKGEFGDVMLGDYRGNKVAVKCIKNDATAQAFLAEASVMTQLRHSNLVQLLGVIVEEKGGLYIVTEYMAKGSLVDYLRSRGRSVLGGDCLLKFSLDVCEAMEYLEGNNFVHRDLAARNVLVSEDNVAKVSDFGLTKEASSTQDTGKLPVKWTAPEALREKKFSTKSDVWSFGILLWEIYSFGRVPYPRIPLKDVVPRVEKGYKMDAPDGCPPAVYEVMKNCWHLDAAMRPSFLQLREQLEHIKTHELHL
T38 sequence (Q9BXA7 whole entry): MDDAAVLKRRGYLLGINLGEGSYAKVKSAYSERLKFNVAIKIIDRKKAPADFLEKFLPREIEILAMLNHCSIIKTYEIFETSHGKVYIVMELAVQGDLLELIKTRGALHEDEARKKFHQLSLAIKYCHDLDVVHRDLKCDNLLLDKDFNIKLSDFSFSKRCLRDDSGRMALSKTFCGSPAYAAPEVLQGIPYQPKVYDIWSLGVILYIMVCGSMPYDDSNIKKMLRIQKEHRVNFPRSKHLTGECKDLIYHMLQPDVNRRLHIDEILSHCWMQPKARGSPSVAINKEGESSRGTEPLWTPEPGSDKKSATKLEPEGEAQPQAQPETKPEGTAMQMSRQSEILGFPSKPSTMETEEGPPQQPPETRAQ
T14 sequence (P68400 whole entry): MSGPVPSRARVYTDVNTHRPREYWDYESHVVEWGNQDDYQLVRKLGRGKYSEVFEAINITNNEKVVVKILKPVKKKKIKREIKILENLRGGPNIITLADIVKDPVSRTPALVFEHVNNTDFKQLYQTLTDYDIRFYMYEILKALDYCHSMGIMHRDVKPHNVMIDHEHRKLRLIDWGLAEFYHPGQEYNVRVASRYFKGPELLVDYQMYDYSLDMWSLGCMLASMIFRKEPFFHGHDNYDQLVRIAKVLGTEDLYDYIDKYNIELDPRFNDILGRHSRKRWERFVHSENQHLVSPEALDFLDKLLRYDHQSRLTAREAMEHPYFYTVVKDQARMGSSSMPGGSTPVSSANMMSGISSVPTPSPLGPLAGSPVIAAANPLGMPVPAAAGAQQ
T14 sequence (P67870 whole entry partner): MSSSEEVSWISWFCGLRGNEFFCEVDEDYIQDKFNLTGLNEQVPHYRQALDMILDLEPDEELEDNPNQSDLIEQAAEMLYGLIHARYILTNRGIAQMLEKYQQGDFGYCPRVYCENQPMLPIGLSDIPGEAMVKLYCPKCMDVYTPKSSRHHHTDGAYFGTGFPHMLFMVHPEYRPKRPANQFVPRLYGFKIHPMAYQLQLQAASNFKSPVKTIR
T2 sequence (P08588 whole entry): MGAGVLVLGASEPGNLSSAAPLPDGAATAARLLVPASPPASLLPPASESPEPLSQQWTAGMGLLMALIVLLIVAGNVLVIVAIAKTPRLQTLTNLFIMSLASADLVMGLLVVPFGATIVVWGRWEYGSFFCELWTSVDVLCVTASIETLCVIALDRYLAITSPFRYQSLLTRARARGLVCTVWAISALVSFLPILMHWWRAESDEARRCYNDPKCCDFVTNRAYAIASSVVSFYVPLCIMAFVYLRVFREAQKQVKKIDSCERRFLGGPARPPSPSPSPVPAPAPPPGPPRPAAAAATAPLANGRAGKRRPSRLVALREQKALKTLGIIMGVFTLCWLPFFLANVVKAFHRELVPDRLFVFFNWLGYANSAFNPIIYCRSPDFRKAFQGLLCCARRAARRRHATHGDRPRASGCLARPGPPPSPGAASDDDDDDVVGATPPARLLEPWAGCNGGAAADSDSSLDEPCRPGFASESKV
T24 sequence (O94804 whole entry): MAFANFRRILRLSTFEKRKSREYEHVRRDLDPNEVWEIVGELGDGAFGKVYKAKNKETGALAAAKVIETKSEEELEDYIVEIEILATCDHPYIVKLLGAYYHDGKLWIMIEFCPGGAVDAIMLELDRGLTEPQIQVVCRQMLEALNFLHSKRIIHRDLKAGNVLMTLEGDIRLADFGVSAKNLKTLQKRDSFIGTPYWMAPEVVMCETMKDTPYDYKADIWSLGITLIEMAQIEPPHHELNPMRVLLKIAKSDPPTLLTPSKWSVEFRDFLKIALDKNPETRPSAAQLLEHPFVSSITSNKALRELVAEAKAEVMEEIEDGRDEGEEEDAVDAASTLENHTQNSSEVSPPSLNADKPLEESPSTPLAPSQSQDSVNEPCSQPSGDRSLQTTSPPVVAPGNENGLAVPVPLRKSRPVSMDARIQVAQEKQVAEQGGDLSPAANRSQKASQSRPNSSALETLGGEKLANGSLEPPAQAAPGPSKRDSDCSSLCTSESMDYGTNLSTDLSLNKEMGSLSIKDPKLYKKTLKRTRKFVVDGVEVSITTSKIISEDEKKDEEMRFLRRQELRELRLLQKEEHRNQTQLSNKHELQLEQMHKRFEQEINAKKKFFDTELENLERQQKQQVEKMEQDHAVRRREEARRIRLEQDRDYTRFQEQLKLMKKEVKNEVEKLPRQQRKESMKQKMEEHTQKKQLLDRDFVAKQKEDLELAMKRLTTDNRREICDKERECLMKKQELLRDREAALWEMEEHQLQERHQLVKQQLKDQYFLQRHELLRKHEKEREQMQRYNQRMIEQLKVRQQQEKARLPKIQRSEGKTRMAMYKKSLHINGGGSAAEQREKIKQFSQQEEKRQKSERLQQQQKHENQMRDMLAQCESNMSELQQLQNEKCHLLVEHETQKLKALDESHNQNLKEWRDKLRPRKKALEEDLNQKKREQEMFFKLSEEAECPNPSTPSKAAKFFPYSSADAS
T37 sequence (O43318 1-303 limits assumed): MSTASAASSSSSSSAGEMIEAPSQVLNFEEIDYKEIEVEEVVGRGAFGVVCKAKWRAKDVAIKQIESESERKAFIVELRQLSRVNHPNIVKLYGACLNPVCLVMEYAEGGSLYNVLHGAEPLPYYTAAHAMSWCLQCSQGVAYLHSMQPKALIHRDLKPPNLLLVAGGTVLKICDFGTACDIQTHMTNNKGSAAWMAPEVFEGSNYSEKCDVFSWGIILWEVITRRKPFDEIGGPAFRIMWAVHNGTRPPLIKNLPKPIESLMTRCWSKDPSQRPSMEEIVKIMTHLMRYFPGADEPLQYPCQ
T41 sequence (Q6PHR2 whole entry): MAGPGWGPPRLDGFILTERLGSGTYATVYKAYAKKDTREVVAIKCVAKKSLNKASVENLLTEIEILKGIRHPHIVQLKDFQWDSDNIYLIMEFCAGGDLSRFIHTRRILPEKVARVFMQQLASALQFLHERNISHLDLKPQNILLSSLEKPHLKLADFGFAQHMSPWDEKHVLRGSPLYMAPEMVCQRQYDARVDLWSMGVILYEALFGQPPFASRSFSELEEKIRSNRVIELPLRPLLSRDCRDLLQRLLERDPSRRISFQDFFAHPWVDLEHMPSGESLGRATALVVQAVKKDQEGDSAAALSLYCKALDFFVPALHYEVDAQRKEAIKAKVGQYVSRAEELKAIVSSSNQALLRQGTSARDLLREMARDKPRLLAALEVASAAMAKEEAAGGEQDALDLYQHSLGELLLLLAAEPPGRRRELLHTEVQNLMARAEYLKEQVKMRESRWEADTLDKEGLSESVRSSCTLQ
T35 sequence (Q96BR1 whole entry): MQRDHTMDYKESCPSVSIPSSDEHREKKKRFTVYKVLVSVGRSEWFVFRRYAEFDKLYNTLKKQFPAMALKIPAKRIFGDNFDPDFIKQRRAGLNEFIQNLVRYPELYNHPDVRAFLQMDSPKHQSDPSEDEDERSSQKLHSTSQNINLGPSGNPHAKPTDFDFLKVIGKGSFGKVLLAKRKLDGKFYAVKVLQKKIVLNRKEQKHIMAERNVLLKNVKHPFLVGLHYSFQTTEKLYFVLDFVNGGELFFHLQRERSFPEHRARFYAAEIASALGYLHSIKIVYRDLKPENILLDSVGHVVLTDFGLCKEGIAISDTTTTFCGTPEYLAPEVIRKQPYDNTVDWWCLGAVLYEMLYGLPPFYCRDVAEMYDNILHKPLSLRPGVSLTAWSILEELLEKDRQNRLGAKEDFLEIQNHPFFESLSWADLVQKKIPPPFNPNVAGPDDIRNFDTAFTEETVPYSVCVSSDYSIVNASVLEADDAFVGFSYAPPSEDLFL
T32 sequence (Q15349 whole entry): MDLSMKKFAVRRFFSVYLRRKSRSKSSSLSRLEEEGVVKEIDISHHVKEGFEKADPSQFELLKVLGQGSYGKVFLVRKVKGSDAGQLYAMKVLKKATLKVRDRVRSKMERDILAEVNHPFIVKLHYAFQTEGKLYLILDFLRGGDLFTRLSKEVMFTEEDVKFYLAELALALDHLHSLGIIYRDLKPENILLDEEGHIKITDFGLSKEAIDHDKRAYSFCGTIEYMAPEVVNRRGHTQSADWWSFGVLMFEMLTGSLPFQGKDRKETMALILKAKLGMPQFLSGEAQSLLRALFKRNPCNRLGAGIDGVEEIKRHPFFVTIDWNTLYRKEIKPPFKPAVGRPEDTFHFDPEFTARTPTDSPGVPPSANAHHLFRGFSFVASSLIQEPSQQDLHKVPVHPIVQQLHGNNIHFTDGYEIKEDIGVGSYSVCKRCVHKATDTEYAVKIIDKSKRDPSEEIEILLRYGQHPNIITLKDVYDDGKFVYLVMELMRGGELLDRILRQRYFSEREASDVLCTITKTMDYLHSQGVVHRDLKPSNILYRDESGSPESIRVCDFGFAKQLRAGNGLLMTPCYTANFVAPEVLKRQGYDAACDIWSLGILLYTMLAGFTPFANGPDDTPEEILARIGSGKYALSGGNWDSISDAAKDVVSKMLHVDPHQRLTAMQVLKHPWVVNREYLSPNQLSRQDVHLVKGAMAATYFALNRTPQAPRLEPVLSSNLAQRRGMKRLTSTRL

Which results are given for `O=C1NCCC12CCN(c1c(Cl)cncc1-c1ccc(N3CCOCC3)cc1)CC2` [Compound 44, 8-(3-Chloro-5-(4-morpholin-4-ylphenyl)pyridin-4-yl)-2,8-diazaspiro[4.5]decan-1-one]?
inhibition at 10 µM (A1 (h)): -11%; inhibition at 10 µM (β1 (h)): 9%; inhibition at 10 µM (β2 (h)): -3%; % Inhibition of Control Specific Binding (GABA (non-selective)): 10%; inhibition at 10 µM (CCR1 (h)): 0%; inhibition at 10 µM (MC4 (h)): 10%; inhibition at 10 µM (NK2 (h)): 11%; inhibition at 10 µM (κ (KOP)): 42%; inhibition at 10 µM (μ (MOP) (h)): 9%; inhibition at 10 µM (5-HT2A (h)): -1%; % Inhibition of Control Specific Binding (sst (non-selective)): -16%; remaining activity at 1 µM (CAMKI): -4%; remaining activity at 1 µM (CDK3/CYCLINE): -7%; remaining activity at 1 µM (CDK5/P25): 0%; remaining activity at 1 µM (CDK9/CYCLINT1): -24%; remaining activity at 1 µM (CK2): 12%; remaining activity at 1 µM (CSK): -1%; remaining activity at 1 µM (DAPK2): 5%; remaining activity at 1 µM (EPHA5): 11%; remaining activity at 1 µM (FGFR1): 13%; remaining activity at 1 µM (FGFR4): 7%; remaining activity at 1 µM (FLT1): 10%; remaining activity at 1 µM (FYN): 10%; remaining activity at 1 µM (IRAK1): 4%; remaining activity at 1 µM (CKIT): 12%; remaining activity at 1 µM (LOK): -1%; remaining activity at 1 µM (MINK): 7%; remaining activity at 1 µM (MKK7BETA): 17%; remaining activity at 1 µM (MLK1): 1%; remaining activity at 1 µM (PAK5): 8%; remaining activity at 1 µM (PDGFRALPHA): 2%; remaining activity at 1 µM (PKCZETA): 5%; remaining activity at 1 µM (PRKX): 1%; remaining activity at 1 µM (RSK3): 1%; remaining activity at 1 µM (SAPK3): 35%; remaining activity at 1 µM (SGK2): -5%; remaining activity at 1 µM (SGK3): 5%; remaining activity at 1 µM (SRC): 4%; remaining activity at 1 µM (TAK1): -3%; remaining activity at 1 µM (TSSK1): 11%; remaining activity at 1 µM (ZAP-70): 13%; remaining activity at 1 µM (CK1GAMMA1): 2%; remaining activity at 1 µM (ULK3): -1%; remaining activity at 1 µM (PLK1): 14%
